What was measured:
[1] = system: swelling induced by cantharidin; assay: Mouse cantharidin test (topical anti-inflammatory activity, mouse ear swelling); type: in vivo; conditions: 24 hours, CDl male mice, **p < 0.01, ***p < 0.001; for inhibition in vivo at 200 µg/ear: dose 200 μg/ear; for inhibition in vivo at 500 µg/ear: dose 500 μg/ear
Protocol: Compounds were tested for topical anti-inflammatory activity in a cantharidin mouse ear screen, modified from Swingle, Reiter and Schwartzmiller [Arch. int. Pharmacodyn. 254, 168-176, 1981].
25 μg cantharidin (in 10 μl tetrahydrofuran:methanol, 1:1 v/v) is applied to both ears of CDl male mice, 25 g bodyweight. 8 animals are used per experimental group. Compounds are included in the irritant solution applied to the left ear only. Negative control animals receive no treatment except 10 μl solvent on each ear. After 24 hours, the animals are killed and the ears are removed by cutting along the hairline and then weighed. The swelling induced by cantharidin is assessed as the increase in the weight of the right ears over that of the right ears of solvent-treated control animals, as a proportion of the weight of solvent-treated right ears. The swelling induced in the same animals in the presence of test compound is similarly the increase in the weight of the left ears over that of the left ears of the solvent-treated control animals, expressed as a proportion of the weight of solvent-treated left ears.
thus, % inhibition=([means wt.left experimental ears-mean wt.left 100-control ears]/[mean wt.left control ears])×100 ([mean wt.right experimental ears-mean wt.right control ears]/[mean wt.right control ears])
(§1) This method reduces the contribution of inter-animal variations in responsiveness to the inflammatory stimulus, and also compensates for any consistent bias in cutting off left and right ears. The significance of the inhibition is calculated using a paired `t` test of the two values of proportional weight increases.

[2] = system: swelling induced by oxazolone; assay: Mouse oxazolone test (topical anti-inflammatory activity in mice sensitised to oxazolone, ear swelling); type: in vivo; conditions: dose 200 μg/ear, 1 hour before challenge, 24 hours after, CDl male mice, *p < 0.1, **p < 0.01, ***p < 0.001
Protocol: Compounds were tested for topical anti-inflammatory activity in a model system using the mouse sensitised to oxazolone, by a method modified from that of Dietrich and Hess [Int. Arch. Allergy, 38, 246 (1970)].
Mice are sensitised with oxazolone (2 mg in 20 μl acetone) on a shaved area of the abdomen. CDl male mice of around 25 g bodyweight (8 animals per group) are used. 5 days later, the animals receive 10 μl tetrahydrofuran:methanol (1:1 v/v) on the right ear and the test compound in 10 μl of the same solvent on the left ear. 1 hour later, the animals are challenged with 100 μg oxazolone in 10 μl acetone on each ear. Negative control animals receive no treatment except 10 μl tetrahydrofuran:methanol at the initial time point. After 24 hours, the animals are killed and the ears are removed by cutting along the hairline and then weighed. The swelling induced by oxazolone is assessed as the increase in the weight of the right ears over that of the right ears of solvent-treated control animals, as a proportion of the weight of solvent-treated right ears. The swelling induced in the same animals in the presence of test compound is similarly the increase in the weight of the left ears over that of the left ears of the solvent-treated control animals, expressed as a proportion of the weight of solvent-treated left ears.
thus, % inhibition=([mean wt.left experimental ears-mean wt.left 100-control ears]/[mean wt.left control ears])×100 ([mean wt.right experimental ears-mean wt.right control ears]/[mean wt.right control ears])
as §1

CCCCC(=O)OCCCNc1cc(C)nc2cn[nH]c12 [Example 4, 7-[3-Pentanoyloxypropylamino]-5-methyl-1H-pyrazolo[4,3-b]pyridine]
inhibition in vivo at 200 µg/ear [1]: 69.9%

Cc1cc(NCCOC(=O)c2ccccc2)c2[nH]ncc2n1 [Example 7, 7-[2-Benzoyloxyethylamino]-5-methyl-1H-pyrazolo[4,3-b]pyridine]
inhibition in vivo at 500 µg/ear [1]: 99.6%
% Inhibition [2]: 30%

CC(C)CCOC(=O)CCCNc1ccnc2cn[nH]c12 [Example 12, Isoamyl (7-(1H-pyrazolo[4,3-b]pyridyl)amino)butanoate]
inhibition in vivo at 200 µg/ear [1]: 78%

CCCCC(=O)OCCNc1cc(C)nc2cn[nH]c12 [Example 9, 7-(2-Pentanoyloxyethylamino)-5-methyl-1H-pyrazolo[4,3-b]pyridine]
inhibition in vivo at 200 µg/ear [1]: 69%

CC(=O)OCCCNc1cc(C)nc2cn[nH]c12 [Example 6, 7-[3-Acetoxypropylamino]-5-methyl-1H-pyrazolo[4,3-b]-pyridine]
inhibition in vivo at 200 µg/ear [1]: 70%
% Inhibition [2]: 53%

CCC(=O)OCCNc1cc(C)nc2cn[nH]c12 [Example 10, 7-[2-Propionyloxyethylamino]-5-methyl-1H-pyrazolo[4,3-b]pyridine]
inhibition in vivo at 200 µg/ear [1]: 55%

Cc1cc(NCCN2CCOCC2)c2[nH]ncc2n1 [Example 5, 7-[2-(N-Morpholino)ethylamino]-5-methyl-1H-pyrazolo [4,3-b]pyridine dihydrate]
inhibition in vivo at 200 µg/ear [1]: 97.6%
% Inhibition [2]: 61.6%

Cc1cc(NCCCN2CCCC2=O)c2[nH]ncc2n1 [Example 3, 5-Methyl-7-(3-(1-(2-oxopyrrolidinyl))propylamino)-1H-pyrazolo[4,3-b]pyridine]
inhibition in vivo at 200 µg/ear [1]: 75.3%
% Inhibition [2]: 44.1%

O=C(CCCNc1ccnc2cn[nH]c12)NCc1ccccc1 [Example 8, (7-(1H-Pyrazolo[4,3,-b]pyridyl)amino)butanoic acid benzylamide]
inhibition in vivo at 500 µg/ear [1]: 95%

CCOC(=O)CCCNc1ccnc2cn[nH]c12 [Example 2, Ethyl 4-(7-(1H-Pyrazolo[4,3-b]pyridyl)amino)butanoate]
inhibition in vivo at 500 µg/ear [1]: 94.6%
% Inhibition [2]: 48.6%

Reference: patent publication US4818754A, “Certain anti-inflammatory pyrazolo [4,3-b] pyridine 7-amines” (Beecham Group p.l.c. of Beecham House, priority 1986, dated 1989)
